“Also recorded” adds a separate entry of the source.
What was measured:
[1] = system: SVV replication in HeLa cells; assay: SVV replication in Tem 8+ HeLa cells, virus yield by plaque assay; assay type: cell-based
Experimental: FIG. 2A. SVV replication in HeLa cells can be enhanced with staurosporine (SSP). FIG. 2B. Inhibition of SVV replication by IFN-α can be reversed with SSP in Per.C6 cells. TEM 8+ HeLa cells or Per.C6 cells were pretreated with 500 units IFN-α before infection with SVV at MOI 1. 300 nM SSP was added at time 0. Virus yields determined by plaque assay 24 h post infection. Results are representative of three independent experiments.
FIGS. 3A-3B are series of histogram depicting the effect of Trichostatin A on SVV replication. FIG. 3A. SVV replication in HeLa cells can be enhanced with Trichostatin A. FIG. 3B. Inhibition of SVV replication by IFN-α can be reversed with Trichostatin A in Per.C6 cells. TEM 8+ HeLa cells or Per.C6 cells were pretreated with 500 units IFN-α before infection with SVV at MOI 1. 1 μM Trichostatin A was added at time 0. Virus yields determined by plaque assay 24 h post infection. Results are representative of three independent experiments.
FIGS. 4A-4B are series of histogram depicting the effect of Torin 2 A on SVV replication. FIG. 4A. SVV replication in HeLa cells can be enhanced with Torin 2 A. FIG. 4B. Inhibition of SVV replication by IFN-α can be reversed with Torin 2 in Per.C6 cells. TEM 8+ HeLa cells or Per.C6 cells were pretreated with 500 units IFN-α before infection with SVV at MOI 1. 2 μM Torin 2 was added at time −30 min. Virus yields determined by plaque assay 24 h post infection. Results are representative of three independent experiments.
Cells and viruses. Cells were maintained in DMEM supplemented with 10% fetal bovine serum (Per.C6) or 10% bovine serum (HeLa), 2 mM L-glutamine (Invitrogen), and 1% penicillin-streptomycin. Viral stocks were produced by growth in Per.C6 cells as previously described (23).
Cytokines and Inhibitors. IFN-α and Trichostatin A were purchased from Sigma, Inc. (St. Louis, MO). […] All compounds were dissolved in DMSO.
Virus infections. Infections were performed in 35 mm dishes. Cells were counted at the time of infection and viral stocks were diluted in PBS+0.01% BSA (Sigma, St. Louis, MO) for infections at the appropriate MOI. One hundred microliters of diluted virus were used to infect each plate at 37° C. for 45 min with rocking. Cells were then washed twice with PBS and covered with 1 mL of appropriate media; samples taken at this time are called 0 time point. Mock infected cells were treated with PBS+0.01% BSA instead of virus. Three independent infections were done.
Plaque assays. […]
Removal of acetyl moieties from histones is catalyzed by enzymes known as histone deacetylases (HDACs) and leads to […]. […] Sixteen hours after infection virus yields were determined by plaque assay (FIG. 3A). […]

[2] = system: SVV replication in Per.C6 cells; assay: SVV replication in Per.C6 cells with or without IFN-α pretreatment, virus yield by plaque assay; assay type: cell-based, human; conditions: Per.C6 cells pretreated with 500 units IFN-α
Experimental: Per.C6 cells were pretreated with 500 units IFN-α before infection with SVV at MOI=1. Virus yields were determined by plaque assay 24 h post infection.
Plaque assays. Samples for virus titration were produced by harvesting cells and medium, followed by three cycles of freezing and thawing and then by centrifugation at 5000×g for 5 min. All titrations were done on monolayers of Per.C6 cells in 35 mm plates. Ten-fold serial dilutions of virus were made in PBS+0.1 mg/ml BSA (Sigma) and 0.1 mL of each dilution was added per well. Plates were incubated at 37° C. for 45 min with rocking and overlay was then added. A two-overlay system was used. […] Plaque assays were incubated for 72 hrs at 37° C. Cells were then fixed with 10% TCA (Sigma) and stained with 0.1% crystal violet (Sigma) in 20% ethanol.

Molecule: CN[C@@H]1C[C@H]2O[C@@](C)([C@@H]1OC)n1c3ccccc3c3c4c(c5c6ccccc6n2c5c31)C(=O)NC4 [staurosporine]
- production of infectious SVV (virus yields by plaque assay) ([1]; Tem 8+ HeLa cells, SVV MOI 1, 300 nM SSP added at time 0, 24 h post infection): increased production of infectious SVV

Molecule: Nc1ccc(-c2ccc3ncc4ccc(=O)n(-c5cccc(C(F)(F)F)c5)c4c3c2)cn1 [Torin 2]
- enhanced SVV replication by Torin 2 in the presence of IFN-α ([1]; HeLa cells pretreated with 500 units IFN-α, 2 μM Torin 2 at −30 min, SVV MOI 1, 24 h post infection): not reduced in the presence of IFN-α
- SVV yields (plaque assay) ([1]; semi-permissive HeLa cells, SVV MOI 1, 2 μM Torin 2 added at time −30 min, 24 h post infection): substantially increased SVV yields
- SVV replication in the presence of IFN-α ([2]; 2 μM Torin 2 at −30 min, SVV MOI 1, 24 h post infection): promoted SVV replication

Molecule: CC(/C=C/C(=O)NO)=C\[C@@H](C)C(=O)c1ccc(N(C)C)cc1 [Trichostatin A]
- SVV infection of non-permissive HeLa cells (virus yields by plaque assay) ([1]; HeLa cells grown with Trichostatin A for 24 hours before infection, yields sixteen hours after infection (legend: 1 μM at time 0, 24 h)): more efficient
- effect on inhibition of SVV replication by IFN-α ([2]; SVV MOI 1, 1 μM Trichostatin A added at time 0, 24 h post infection): reversed the inhibitory effect of IFN-α on SVV replication

Molecule: IFN-α
- production of infectious SVV (virus yields by plaque assay) ([2]; SVV MOI 1, 24 h post infection): significantly reduced production of infectious SVV; also recorded: reduced virus yields

Reference: patent US12502414B2, “Second generation Seneca Valley virus oncolytic therapy: compositions and methods thereof” (SENECA THERAPEUTICS, INC., priority 2019, dated 2025)
